These results are taken from ChEMBL document CHEMBL1201862, “PubChem BioAssay data set” (2004).

What all share (assay): inhibition of tumour cell growth, NCI panel, 48 h
The subject of assay [1] is 786-0.
Assay [2] relates to MDA-N.
For assay [3], the system named is SF-539.
In assay [4] the test system is DU-145.
Assay [5] has as its system OVCAR-5.
Assay [6] deals with NCI/ADR-RES.
Assay [7] concerns HCC 2998.
For assay [8], the system named is SF-295.
Assay [9] deals with KM12.
For assay [10], the system named is HOP-92.
Assay [11] relates to LOX IMVI.
Assay [12] deals with SK-MEL-2.
Assay [13] deals with OVCAR-4.
Assay [14] concerns ACHN.
For assay [15], the system named is UACC-257.
Assay [16] deals with CCRF-CEM.
Assay [17] relates to SNB-19.
For assay [18], the system named is RXF 393.
Assay [19] concerns SW-620.
In assay [20] the test system is SNB-75.

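These data come from cells grown in 96-well plates and exposed to compound for 48 hours at five concentrations. Abbreviation: GI50, concentration required for 50% inhibition of growth.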 Active and inactive are the calls of the source. No stated cut-off is given here; in the data, active = GI50 up to about 1.1 µM and inactive = higher.

On to `CC(=O)OCC1OC(n2c(C)c(C(C)=O)c(-c3cccc4ccccc34)c(C#N)c2=S)C(OC(C)=O)C(OC(C)=O)C1OC(C)=O` (stereo not given), for which the GI50 in assay [1], in assay [2], in assay [3], in assay [4], in [5] and in assay [6] was > 100 µM (inactive) each time. For the same compound, the GI50 was > 100 µM (inactive) in assay [7]; > 100 µM (inactive) in assay [8]; > 100 µM (inactive) in assay [9]; 17.5 µM (inactive) in [10]; > 100 µM (inactive) in assay [11]; > 100 µM (inactive) in [12]. In addition, the GI50 in assay [13], in assay [14], in [15], in assay [16], in assay [17] and in [18] was > 100 µM (inactive) in each case. For the same compound, the GI50 is > 100 µM (inactive) in assay [19] and 25.9 µM (inactive) in [20].

Turning to `O=c1[nH]c(Br)nc2[nH]nnc12`, the GI50 in assay [1] is 25.1 µM (inactive); in assay [2], 38.9 µM (inactive); in assay [3], 16.7 µM (inactive); in assay [4], 14.1 µM (inactive); in [5] it was > 100 µM (inactive); in assay [6], 10.4 µM (inactive). Moreover, the GI50 in assay [7] was > 100 µM (inactive); in assay [8] it was 72.8 µM (inactive); in assay [9] it was > 100 µM (inactive); in assay [10], > 100 µM (inactive); in assay [11] it was 6.89 µM (inactive); in assay [12] it was 8.24 µM (inactive). For the same compound, the GI50 was 85.5 µM (inactive) in assay [13]; > 100 µM (inactive) in assay [14]; 55.6 µM (inactive) in assay [15]; 7.55 µM (inactive) in assay [16]; > 100 µM (inactive) in [17]; 35 µM (inactive) in [18]. Further, the GI50 in assay [19] is 45.8 µM (inactive); in assay [20], 23.1 µM (inactive).

For the compound `CCCCCCCCCCCCCCCC(=O)Nc1ccn(C2OC(CO)C(O)C2O)c(=O)n1` (stereo not given), the GI50 in [1] was 4.01 µM (inactive); in assay [2], 30.3 µM (inactive); in [3], 57.7 µM (inactive); in assay [4], 3.38 µM (inactive); in [5], 45.4 µM (inactive); in [6], 7.23 µM (inactive). Further, the GI50 in assay [7] is 25.1 µM (inactive); in assay [8], 51.1 µM (inactive); in assay [9] it was 29.4 µM (inactive); in assay [10] it was 16.6 µM (inactive); in assay [11], 5.25 µM (inactive); in assay [12], > 100 µM (inactive). The GI50 is > 100 µM (inactive) in assay [13]; 3.08 µM (inactive) in [14]; 78.3 µM (inactive) in [15]; 0.0308 µM (active) in assay [16]; 15.2 µM (inactive) in [17]; 24.6 µM (inactive) in assay [18]. For the same compound, the values for the GI50 in assay [19] and in [20] were > 90.4 µM (inactive) and 30.5 µM (inactive), respectively.

Take `COc1cc(CNCc2cc(OC)c(OC)c(OC)c2)cc(OC)c1OC`: the GI50 in assay [1], in [2], in [3], in assay [4], in assay [5] and in assay [6] was > 10 µM (inactive) throughout. In addition, the GI50 in assay [7] is > 10 µM (inactive); in [8], > 10 µM (inactive); in assay [9], > 10 µM (inactive); in assay [10], > 6.07 µM (inactive); in assay [11], > 8.38 µM (inactive); in assay [12], > 10 µM (inactive). In addition, the GI50 in [13] was > 10 µM (inactive); in assay [14], > 10 µM (inactive); in assay [15], > 10 µM (inactive); in [16], 2.37 µM (inactive); in assay [17] it was > 10 µM (inactive); in [18], > 10 µM (inactive). Besides, the GI50 in assay [19] is > 10 µM (inactive); in [20] it was > 8.38 µM (inactive).

`C=CCN(c1cc(OCc2ccccc2)c2c(c1)c(C)cn2S(=O)(=O)c1ccccc1)S(C)(=O)=O`: the GI50 in assay [1], in assay [2], in [3], in assay [4], in [5] and in assay [6] was > 100 µM (inactive) in each case. The GI50 in [7], in [8], in [9], in assay [10], in [11] and in [12] was > 100 µM (inactive) throughout. In addition, the GI50 in assay [13], in assay [14], in [15], in [16], in assay [17] and in assay [18] was > 100 µM (inactive) each time. For the same compound, the GI50 in assay [19] and in [20] was > 100 µM (inactive) throughout.
